Test results published in patent US20020019372A1 (priority 2000, published 2002).
Blank lines part the entries; values can stand above or below the compound they belong to.

Assays:
[1] = tested on: renal proximal tubular cells; assay: Monolayer DNA content as marker of renal proximal tubular cell proliferation after DCVC injury; type: cell-based, rabbit
Protocol: (§1) Rabbit renal proximal tubules were isolated by iron oxide perfusion method and grown in 35 mm culture dishes in improved conditions as described previously (Nowak and Schnellmann, 1996). The purity of the renal proximal tubular S1 and S2 segments isolated by this method is approximately 96%. The culture medium was a 50:50 mixture of Dulbecco's modified Eagle's essential medium (DMEM) and Ham's F-12 nutrient mix without phenol red, pyruvate, and glucose, supplemented with 15 mM NaHCO3, 15 mM N-2hydroxyethylpiperazine-N′-2-ethanesulfonic acid, and 6 mM lactate (pH7.4, 295 mosmol/kg). Human transferrin (5 μg/ml), selenium (5 ng/ml), hydrocortisone (50 nM), bovine insulin (10 nM), and L-ascorbic acid-2-phosphate (0.05 mM or 0.5 mM) were added to the medium immediately before daily media change (2 ml/ dish).
(§2) Renal proximal tubular cells monolayers reached confluence within 5 days and were treated with dichlorovinyl-L-cysteine (0.2 mM, 100 min) on day 6 of culture. Following dichlorovinyl-L-cysteine exposure, the remaining monolayer was washed with fresh medium and cultured for 4 days. Samples of renal proximal tubular cells were taken at various time points after dichlorovinyl-L-cysteine exposure for measurements of cellular functions. Prior to measurement of any functions, renal proximal tubular cells were washed with ice cold phosphate buffered saline (pH 7.4) or 37° C. culture media (for measurement of oxygen consumption, QO2) to remove non-viable cells.
Monolayer DNA content was used as a marker of renal proximal tubular cells proliferation. Monolayers were solubilized in 0.05 M Tris-HCl (pH 7.4) containing 0.15 M NaCl and 0.05% Triton X-100 and DNA determined in cell lysates by the method of Labarca and Paigen (1980) as described previously (Nowak and Schnellmann, 1996). Protein was measured by the method of Lowry et al. (1951).

[2] = tested on: renal proximal tubular cells; assay: Basal oxygen consumption (QO2) as marker of mitochondrial function; type: cell-based, rabbit
Protocol: as §1, §2
(§3) Washed renal proximal tubular cells monolayers were gently detached from the dishes with a rubber policeman, suspended in 37° C. culture medium and transferred to the oxygen consumption (QO2) measurement chamber. QO2 was measured polarographically using Clark type electrode as described previously (Nowak and Schnellmann, 1996; Nowak et al., 1998; Nowak et al., 1999). Ouabain-insensitive QO2 was measured in the presence of 0.1 mM ouabain and was calculated as a difference between basal and ouabain-insensitive QO2.

[3] = tested on: renal proximal tubular cells; assay: Ouabain-insensitive oxygen consumption (QO2); type: cell-based, rabbit; details: for decrease of ouabain-insensitive QO2: 24 hr after DCVC
Protocol: as §1, §2, §3

[4] = tested on: renal proximal tubular cells; assay: Ouabain-sensitive QO2 as marker of active Na+ transport; type: cell-based, rabbit
Protocol: as §1, with “dish). […]” for “dish).”
as §3

[5] = tested on: α1 subunit of Na^+-K^+-ATPase; assay: Immunocytochemical localization of Na+-K+-ATPase (confocal laser scanning microscopy); type: cell-based, rabbit; details: for effect on Na+-K+-ATPase protein of the plasma membrane: DCVC 0.2 mM, independent of AscP concentration
Protocol: as §1, §2
At various time points following dichlorovinyl-L-cysteine exposure, control and DCVC-treated renal proximal tubular cells monolayers were washed 3 times with ice-cold PBS and fixed in 3.7% formaldehyde. Following permeabilization with 100% methanol for 10 min at −20° C., renal proximal tubular cells monolayers were washed with PBS containing 0.1% BSA and 0.3% Triton X-100 (PBS/0.1% BSA/0.3% Triton X-100) for 15 min at room temperature. Blocking of non-specific binding was performed for 30 min in PBS containing 8% BSA. […]

[6] = tested on: renal proximal tubular cells; details: Nowak et al., 1999, cited from earlier work
[7] = DCVC-injured RPTC, 0.5 mM AscP, day 4

- basolateral Na+-K+-ATPase protein levels and distribution in control RPTC, physiological vs pharmacological concentration ([5]; control RPTC without DCVC): no difference
Compound: O=C1O[C@H]([C@@H](O)CO)C(O)=C1OP(=O)([O-])[O-].[Mg+2] [L-ascorbic acid phosphate, L-Ascorbic acid-2-phosphate magnesium salt]
- proliferation and recovery of physiological functions and basolateral Na+-K+-ATPase expression ([1]; DCVC-injured RPTC, 0.5 mM AscP, by day 4 (summary)): proliferated, recovered all examined physiological functions and the basolateral membrane expression of Na^+-K^+-ATPase by day 4
- increase of monolayer DNA content ([1]; DCVC-injured RPTC, 0.5 mM AscP, day 2): 1.6 fold
- increase of monolayer DNA content [1, 7]: 2.3 fold
- monolayer DNA content relative to controls [1, 7]: 81 % of controls
- monolayer DNA content in control RPTC, 0.05 vs 0.5 mM ([1]; control RPTC without DCVC): equivalent
- basal QO2 in control RPTC, 0.05 vs 0.5 mM ([2]; control RPTC without DCVC): equivalent
- remaining decrease of ouabain-insensitive QO2 ([3]; DCVC-injured RPTC, through day 4, 0.05 mM AscP): 45%
- ouabain-insensitive QO2 ([3]; control RPTC without DCVC, 0.05 mM AscP): 9.7±1.6 nmol O2/min/mg protein
- ouabain-insensitive QO2 ([3]; control RPTC without DCVC, 0.5 mM AscP): 12.9±1.5 nmol O2/min/mg protein
- time of return of active Na+ transport to control levels ([4]; DCVC-injured RPTC, pharmacological concentrations of AscP (discussion)): occurred on day 4
- ouabain-sensitive QO2 in control RPTC, 0.05 vs 0.5 mM ([4]; control RPTC without DCVC): equivalent

Compound: EGF: epidermal growth factor, 10 ng/ml daily treatments
- effect on inhibition of RPTC regeneration after DCVC-induced injury ([6]; daily treatments, 10 ng/ml): can be overcome

Compound: N[C@@H](CSC(Cl)=CCl)C(=O)O [dichlorovinyl-L-cysteine, S-(1,2dichlorovinyl)-L-cysteine]
- renal proximal tubular cells death and loss from the monolayer ([1]; 24 hr after DCVC 0.2 mM, 100 min, independent of AscP 0.05 or 0.5 mM): 60%
- loss of monolayer DNA ([1]; 24 hr after DCVC 0.2 mM, 100 min, regardless of AscP 0.05 or 0.5 mM): 61%
- decrease of basal QO2 ([2]; 24 hr after DCVC, RPTC grown in 0.05 mM AscP): 59%
- decrease in mitochondrial function ([2]; DCVC 0.2 mM, 100 min, independent of AscP concentration): 54%
- decrease of basal QO2 ([2]; after DCVC, RPTC grown in 0.5 mM AscP): 62%
- decrease of ouabain-insensitive QO2 ([3]; 0.05 mM AscP): 32%
- decrease of ouabain-insensitive QO2 ([3]; 0.5 mM AscP): 50%
- ouabain-insensitive QO2 ([3]; DCVC-treated RPTC, 24 hr, 0.05 mM AscP): 6.6±2.6 nmol O2/min/mg protein
- ouabain-insensitive QO2 ([3]; DCVC-treated RPTC, 24 hr, 0.5 mM AscP): 6.5±1.0 nmol O2/min/mg protein
- effect on Na+-K+-ATPase protein of the plasma membrane [5]: loss of Na^+-K^+-ATPase protein from the basolateral membrane
- effect on Na+-K+-ATPase protein of the plasma membrane ([5]; listed as DCVC): loss of the Na^+-K^+-ATPase protein from the basolateral domain
- cell death and loss from the monolayer ([6]; earlier study): 30%
